Reference: patent publication US20230250183A1, “POLYPEPTIDE THAT SPECIFICALLY BINDING TO CD123 PROTEIN, POLYPEPTIDE COMPLEXE, CO-DELIVERY SYSTEM AND PREPARATION METHOD AND USE THEREOF” (Institute of Basic Medical Sciences Chinese Academy of …, priority 2020, published 2023)
Where a name gives a salt, the structure may show the parent alone. No end group written: not given here.

Tests used:
[1] = system: HUVEC cells; assay: Effect of co-delivery system on the activity of HUVEC cells (CCK-8); assay type: cell-based, human; settings: Dox 0.1 μM, polypeptide 2.1 μM, 24 hours, CCK8
Method: (§1) HUVEC cells were inoculated in 96-well plates with 1×10^4 cells per well, and grouping was the same as experiment 8. Corresponding drug stock solutions were added into each well in each experimental group to make the final Dox concentration of each well is 0.1 μM and the final corresponding polypeptide concentration of each well is 2.1 μM. Incubated at 37° C. in 5% CO2 incubator for 24 hours, then washed with PBS, and 110 μL CCK8 diluent (including 100 μL RPMI 1640 medium+10 μL CCK-8) was added in each well, followed by incubation for 2 h. The absorbance values (OD value) at wavelengths of 450 nm and 630 nm were measured by a microplate reader, and the percent viability of cells was calculated according to Formula 1, and the control group was the cells without drug treatment, denoted as Con.

[2] = system: MOLM-13 cells; assay: Effect of co-delivery system on the activity of MOLM-13 cells (CCK-8); assay type: cell-based; settings: human, 24 h
Method: The following experimental groups were set and stock solutions for experiment were configured, including:
1) Polypeptide PO-6 group (PO-6): polypeptide stock solution obtained in Example 1 (polypeptide concentration is 1 mM);
2) Doxorubicin (Dox) group: doxorubicin hydrochloride was dissolved in sterile water to obtain 1 mg/mL (1.7 mM) Dox stock solution;
3) High polymer group (mPEG2000-PCL2000): 15 mg mPEG2000-PCL2000 powder was weighted and dissolved with 1 mL PBS solution to obtain 15 mg/mL (3.3 mM) mPEG2000-PCL2000 stock solution.
4) Polypeptide PO-6 and Dox combination group (PO-6+Dox): the polypeptide stock solution in experimental group 1) and the Dox stock solution in experimental group 2) were diluted with PBS solution respectively, then mixed to obtain a mixed solution. The concentration of polypeptide was 36.2 μM, the concentration of Dox was 17.24 μM, and the weight ratio of polypeptide PO-6 to Dox was 10:1 in the mixed solution; […]
Experimental procedure: MOLM-13 cells were inoculated in 96-well U-shaped plates with 8×10^4 cells per well. […] The absorbance values (OD value) at wavelengths of 450 nm and 630 nm were measured by a microplate reader, and the percent viability of cells was calculated according to Formula 1, and the control group was the cells without drug treatment, denoted as Con; […]

[3] = system: K562 cells (CD123-negative); assay: Polypeptide binding to K562 cells by flow cytometry; settings: FITC-labeled polypeptide 0.5, 1, 5 and 10 μM, 37° C., 0.5 h
Method: (§2) MOLM-13 and K562 cells were inoculated into 48-well plates with 2×10^5 cells per well, respectively, and FITC-labeled polypeptides listed in Table 1 were added to make the final concentrations of polypeptides were 0.5 μM, 1 μM, 5 μM and 10 μM, respectively. Incubate at 37° C. in 5% CO2 incubator for 0.5 h. After incubation, washed once with PBS solution, centrifuged at 1500 rpm for 5 min, and the supernatant was discarded, and 100 μL PBS solution was added to each well to re-suspend the cells, and 300 mesh sieve was used for filtration. Flow cytometry was used for determination of the mean fluorescence intensity (MFI) of MOLM-13 and K562 cells, and MFI was used as indication of the binding quantity of polypeptide on cells. FIGS. 2 and 3 show the quantity of polypeptides bound to cells.

[4] = system: MOLM-13 cells; assay: Binding of polypeptide, polypeptide complex to MOLM-13 observed by laser scanning confocal microscope; settings: FITC-labeled, polypeptide 0.5 μM, 0.5 h
Method: MOLM-13 cells (2×10^5 cells per well) were incubated with FITC-labeled polypeptides (taking PO-6, and PO-6N as examples) and polypeptide complexes (see Table 2) at 37° C. for 30 min, and the final concentration of polypeptides was 0.5 μM (the final concentration of polypeptides in the cultivation system of polypeptide complexes was also 0.5 μM). After incubation, the cells were collected and washed twice with PBS solution, centrifuged at 1500 rpm for 5 min, and the supernatant was discarded. 400 μL paraformaldehyde in PBS aqueous solution (containing 4 wt % paraformaldehyde) was added to each well, and they were placed in dark at room temperature for 30 min, so that the cells were fixed by paraformaldehyde. washed once with PBS solution, centrifugated at 2000 rpm for 5 min, and the cells were dropped on the glass slide to dry naturally, and then was sealed with a mounting medium containing DAPI (4′, 6-diamidino-2-phenylindole). Laser scanning confocal microscope (Ex=488 nm (FITC); Ex=405 nm (DAPI)) was used for observation and photographing. MOLM-13 cells without any treatment were taken as the control group, i.e., Con. Photos of polypeptide PO-6 and PO-6N and corresponding polypeptide complexes (taking C-1 and C-1′ as examples) are shown in FIG. 9 and FIG. 10. […]

[5] = system: MOLM-13 cells (CD123-positive); assay: Polypeptide binding to MOLM-13 cells by flow cytometry; settings: FITC-labeled polypeptide 0.5, 1, 5 and 10 μM, 37° C., 0.5 h
Method: as §2

[6] = Effect of co-delivery system on the activity of HUVEC cells (CCK-8); assay type: cell-based, human; settings: human, Dox 0.1 μM, polypeptide 2.1 μM, CCK8, read-out: percent viability of cells
Method: as §1

For `COc1cccc2c1C(=O)c1c(O)c3c(c(O)c1C2=O)C[C@@](O)(C(=O)CO)C[C@@H]3O[C@H]1C[C@H](N)[C@H](O)[C@H](C)O1` [Dox, doxorubicin hydrochloride, reference compound], the “percent viability of cells” value [1] was “about 50%” and the “percent viability of cells” value ([2]; 0.1 μM) was 57%.

In the case of GGDDDYDTRAQGTDIGNDFRRISDDD [PO-6N], the “binding quantity to K562 cells (mean fluorescence intensity of FITC)” value [3] is reported as “very weak”, the “green fluorescence on the cell surface compared with Con” value [4] is reported as “obvious green fluorescence” and the “binding quantity to MOLM-13 cells (mean fluorescence intensity of FITC)” value [5] is reported as “can bind”.

In the case of DDDYDTRAQGTDIGCDFRRISDDD [PO-6], the viability at 24 h, 2.1 µM [6] is reported as > 90% and the “percent viability of cells” value ([2]; 0.21 μM) is reported as 98%.
